The source of these data is the supplement of paper PMC7600603.

Some results are limits rather than exact numbers.

For assay [1], the system named is DLD1 NRF2-WT. The assay is described as follows: drug sensitivity score (DSS) cytotoxicity (DSS score); higher = more toxic; extreme values may be limits of the assay. As to conditions: 72 h; CellTox Green cytotoxicity. The method in brief:
(§1)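 Isogenic DLD1 colorectal cancer cells, either NRF2 wild-type or CRISPR gain-of-function, were grown in DMEM with 10% FBS. They were exposed in 384-well plates to library compounds at 5 concentrations spanning a 10,000-fold range. After 72 h, cytotoxicity was read by CellTox Green on a Pherastar FS reader and normalised to vehicle wells and 100-μM positive-control wells. TC50 and drug sensitivity score (a normalised area under the curve) came from logistic dose-response fits.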

Assay [2] has as its system DLD1 NRF2-GOF. The assay is described as above. As to conditions: 72 h; CellTox Green cytotoxicity. The method in brief: as §1
Assay [3] has as its system DLD1 NRF2-WT. The assay is described as follows: TC50 cytotoxicity; higher = less toxic. The note with it: 72 h; CellTox Green cytotoxicity. The method in brief: as §1
Assay [4] has as its system DLD1 NRF2-GOF. Briefly: TC50 cytotoxicity; higher = less toxic. The note with it: 72 h; CellTox Green cytotoxicity. The procedure, abridged: as §1
Assay [5] deals with DLD1 NRF2-WT. As to conditions: 72 h; CellTiter-Glo viability. The method in brief: (§2)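 DLD1 colorectal cancer cells, an isogenic pair either NRF2 wild-type or carrying a CRISPR gain-of-function, were cultured in DMEM with 10% FBS and treated in 384-well plates with library compounds at 5 concentrations across a 10,000-fold range. CellTiter-Glo viability was read on a Pherastar FS reader after 72 h and normalised to vehicle wells and 100-μM positive-control wells. Four-parameter logistic dose-response fits were applied. EC50 and drug sensitivity score, a normalised area under the curve, were taken from these fits.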

Assay [6] relates to DLD1 NRF2-GOF. The note with it: 72 h; CellTiter-Glo viability. The method in brief:
as §2

Assay [7] relates to DLD1 NRF2-WT. Briefly: drug sensitivity score (DSS) viability (DSS score); higher = more sensitive; extreme values may be limits of the assay. The note with it: 72 h; CellTiter-Glo viability. The procedure, abridged:
as §2
In general terms: ATP-based viability assays read luminescence as a measure of living cells.

In assay [8] the test system is DLD1 NRF2-GOF. The assay is described as above. As to conditions: 72 h; CellTiter-Glo viability. The procedure, abridged:
as §2

For `CCS(=O)(=O)c1cccc(-c2cc(C(=O)NC3CCN(C)CC3)c(C)c3[nH]c4ncc(C)cc4c23)c1` [TAK-901], the drug sensitivity score in the assay with DLD1 NRF2-WT [1] turned out to be 2.2; with DLD1 NRF2-GOF [2], 5.6; with DLD1 NRF2-WT [7], 7.8; in the assay with DLD1 NRF2-GOF [8], 11.2. For the same compound, the TC50 cytotoxicity was more than 1000 nM with DLD1 NRF2-WT [3] and 83.7 nM in the assay with DLD1 NRF2-GOF [4]. Further, the EC50 viability in the assay with DLD1 NRF2-WT [5] turned out to be 108 nM; in the assay with DLD1 NRF2-GOF [6] it was 53.3 nM.

On to `Cc1cccc(-c2[nH]c(CNc3ccccc3F)nc2-c2ccc3ncnn3c2)n1` [TEW-7197], for which the drug sensitivity score with DLD1 NRF2-WT [1] came out at 0; in the assay with DLD1 NRF2-GOF [2] it was 0; in the assay with DLD1 NRF2-WT [7] it was 0; with DLD1 NRF2-GOF [8], 1.7. Further, the TC50 cytotoxicity in the assay on DLD1 NRF2-WT [3] and in the assay with DLD1 NRF2-GOF [4] was more than 2500 nM each time. The EC50 viability with DLD1 NRF2-WT [5] and in the assay with DLD1 NRF2-GOF [6] was more than 2500 nM each time.

For the compound `Nc1nc(N)c2nc(-c3cccc(O)c3)c(-c3cccc(O)c3)nc2n1` [TG100-115], the drug sensitivity score in the assay on DLD1 NRF2-WT [1] amounted to 0; with DLD1 NRF2-GOF [2], 0; with DLD1 NRF2-WT [7], 7.1; with DLD1 NRF2-GOF [8] it was 3.5. The TC50 cytotoxicity in the assay with DLD1 NRF2-WT [3] and with DLD1 NRF2-GOF [4] was more than 10000 nM in each case. For the same compound, the values for the EC50 viability in the assay on DLD1 NRF2-WT [5] and with DLD1 NRF2-GOF [6] were 75.1 nM and 1430 nM, respectively.

Regarding `CC(C)Oc1ccc(-c2nn([C@@H](C)c3oc4ccc(F)cc4c(=O)c3-c3cccc(F)c3)c3ncnc(N)c23)cc1F` [TGR-1202], the drug sensitivity score in the assay with DLD1 NRF2-WT [1], in the assay with DLD1 NRF2-GOF [2], in the assay on DLD1 NRF2-WT [7] and in the assay with DLD1 NRF2-GOF [8] was 0 throughout. The TC50 cytotoxicity with DLD1 NRF2-WT [3] and in the assay with DLD1 NRF2-GOF [4] was more than 2500 nM each time. The EC50 viability in the assay with DLD1 NRF2-WT [5] and in the assay on DLD1 NRF2-GOF [6] was more than 2500 nM each time.

As to `C=CC[C@@H]1/C=C(\C)C[C@H](C)C[C@H](OC)[C@H]2O[C@@](O)(C(=O)C(=O)N3CCCC[C@H]3C(=O)O[C@H](/C(C)=C/[C@@H]3CC[C@@H](O)[C@H](OC)C3)[C@H](C)[C@@H](O)CC1=O)[C@H](C)C[C@@H]2OC` [Tacrolimus], the drug sensitivity score came to 0 in the assay on DLD1 NRF2-WT [1], 0 in the assay with DLD1 NRF2-GOF [2], 4.5 with DLD1 NRF2-WT [7] and 5 with DLD1 NRF2-GOF [8]. Moreover, the TC50 cytotoxicity in the assay with DLD1 NRF2-WT [3] and in the assay with DLD1 NRF2-GOF [4] was more than 10000 nM each time. Besides, the EC50 viability with DLD1 NRF2-WT [5] is 933 nM; with DLD1 NRF2-GOF [6], 844 nM.

As for `C[C@@H](C(=O)O)c1ccc(-c2ccccc2)c(F)c1` [Tarenflurbil], the drug sensitivity score with DLD1 NRF2-WT [1], with DLD1 NRF2-GOF [2], in the assay with DLD1 NRF2-WT [7] and in the assay with DLD1 NRF2-GOF [8] was 0 in each case. The TC50 cytotoxicity with DLD1 NRF2-WT [3] and in the assay on DLD1 NRF2-GOF [4] was more than 10000 nM each time. The EC50 viability with DLD1 NRF2-WT [5] and in the assay with DLD1 NRF2-GOF [6] was more than 10000 nM in each case.

Turning to `Cc1nc(-c2cn3c(n2)-c2ccc(-c4cnn(C(C)(C)C(N)=O)c4)cc2OCC3)n(C(C)C)n1` [Taselisib], the drug sensitivity score with DLD1 NRF2-WT [1] came to 0.4; with DLD1 NRF2-GOF [2], 0; in the assay with DLD1 NRF2-WT [7], 5.5; in the assay on DLD1 NRF2-GOF [8], 0.9. The TC50 cytotoxicity in the assay on DLD1 NRF2-WT [3] and in the assay with DLD1 NRF2-GOF [4] was more than 1000 nM in each case. For the same compound, the EC50 viability is 11.7 nM in the assay with DLD1 NRF2-WT [5] and more than 1000 nM with DLD1 NRF2-GOF [6].

In the case of `COc1cccc2c1c(O)c(C(=O)N(C)c1ccc(C(F)(F)F)cc1)c(=O)n2C` [Tasquinimod], the drug sensitivity score was 0 with DLD1 NRF2-WT [1], 0 with DLD1 NRF2-GOF [2], 1.8 in the assay on DLD1 NRF2-WT [7] and 1.2 with DLD1 NRF2-GOF [8]. Besides, the TC50 cytotoxicity in the assay with DLD1 NRF2-WT [3] and in the assay on DLD1 NRF2-GOF [4] was more than 10000 nM in each case. Further, the EC50 viability in the assay with DLD1 NRF2-WT [5] and in the assay with DLD1 NRF2-GOF [6] was more than 10000 nM throughout.

Take `CN1CCC(COc2cnc(-c3cccc(Cn4nc(-c5cccc(C#N)c5)ccc4=O)c3)nc2)CC1` [Tepotinib]: the drug sensitivity score in the assay on DLD1 NRF2-WT [1], with DLD1 NRF2-GOF [2], with DLD1 NRF2-WT [7] and in the assay on DLD1 NRF2-GOF [8] was 0 throughout. Further, the TC50 cytotoxicity in the assay with DLD1 NRF2-WT [3] and in the assay with DLD1 NRF2-GOF [4] was more than 1000 nM in each case. The EC50 viability in the assay on DLD1 NRF2-WT [5] and with DLD1 NRF2-GOF [6] was more than 1000 nM in each case.

For `COc1cc2c(Nc3ccc(Cl)c(Cl)c3F)ncnc2cc1OC[C@@H]1C[C@@H]2CN(C)C[C@@H]2C1` [Tesevatinib], the drug sensitivity score was found to be 0.1 in the assay with DLD1 NRF2-WT [1], 0 in the assay on DLD1 NRF2-GOF [2], 5.1 in the assay with DLD1 NRF2-WT [7] and 1.2 in the assay with DLD1 NRF2-GOF [8]. The TC50 cytotoxicity in the assay on DLD1 NRF2-WT [3] and in the assay on DLD1 NRF2-GOF [4] was more than 1000 nM throughout. Further, the values for the EC50 viability in the assay with DLD1 NRF2-WT [5] and in the assay on DLD1 NRF2-GOF [6] were 167 nM and 425 nM, respectively.
